Source: patent publication US9120849B2 (priority 2000, dated 2015)
Where two headings read alike, the source gives them in different places.

How the values were obtained:
[1] = system: bovine viral diarrhea virus (BVDV); settings: 60 minutes, 20° C., Reed and Muench
Description: In this example bovine viral diarrhea virus (BVDV), biotype 1 (CPE), genotype 1 Host: Madin-Darby bovine kidney (MDBK) cells were inactivated according to the methods discussed in Example 2.
Bovine viral diarrhea virus (BVDV), biotype I (CPE), genotype 1 was used in these studies which infect Madin-Darby bovine kidney (MDBK) cells. […] These samples (0.5 mL) were loaded into pre-spun sephacryl columns. The columns were spun for 4 minutes at 1000 rpm. The samples were aseptically removed from the columns and ten-fold serial dilutions were then prepared in minimal essential medium (MEM) and adsorbed on the monolayer of host cells seeded in tissue culture plates for one hour at 37±2° C. and 5±1% C02. Post-adsorption, the monolayers were washed with EBSS and replaced with fresh MEM and incubated for 5-7 days at 37±2° C. and 5±1% C02. The presence of infectious viruses was determined as described below: post-incubation, the plates were washed with 3× with PBS and fixed with TC grade alcohol and stained with direct porcine polyclonal anti-BVDV conjugated antibody. The stained plate were scored using UV microscopy using a Nikon Diaphot microscope, and monolayers that contained one or more BVDV surface antigen positive […] were scored positive. Four wells per dilution were inoculated and results were recorded as the FFFUD50 calculated by Reed and Munch (1938).

[2] = system: duck hepatitis B virus (DHBV); settings: 60 minutes, 20° C., Reed and Muench
Description: This model uses primary duck hepatocytes (PDHs) as host (Pugh et al., 1999). We isolated and maintained PDHs from less than one week-old seronegative White Pekin ducklings (Anas dornesticus) with modifications from previous procedures (Berry and Friend, 1969, Seglen. 1976, Pugh and Summers, 1989, Pugh et al., 2000, Tuttleman et al., 1986). Briefly, ducks were euthanized by exposing them to C02 and livers were perfused twice via the atrium of the heart with approximately 200 mL each of two solutions. The first solution consisted of SWIM's S-77 medium (Sigma) supplemented with 0.5 mmol/L EGTA, 2 mmol/L Hepes (pH 7.45) and 50 ug/mL penicillin and streptomycin (Biofluids, Rockville, Md.). The second solution contained SWIM's S-77 medium supplemented with 2.5 mmol/L CaCl2, 0.5 mg of collagenase/mL (type I, Sigma, St. Louis) and 50 ug/mL penicillin and streptomycin. These perfusates were administered at approximately 15 mL/minute using a peristaltic pump and the temperature of the perftisate was adjusted to maintain the liver at 37° C. The liver was removed, minced with scissors and repeatedly mixed with a 25 mL pipette for hepatocyte dispersion into complete L-15 medium (Biofluids, Rockville, Md.) supplemented with 0.05-percent (w/v) sodium bicarbonate (Biofluids), 1 mmol/L glutamine (Biofluids), 20 mmol/L HEPES (Biofluids), 50 ug/mL penicillin and streptomycin (Biofluids), I (g/mL insulin (Sigma, St. Louis), and 10 (moi/L hydrocortisone-hemisuccinate (Sigma). Cells were filtered through sterile gauze, centrifuged at 50×g for 4 minutes, and the resulting cell pellet was washed three times with L-15 medium and resuspended in L-15 medium. 12-well plates were seeded with approximately two-mL of the cell suspension (ca. 10^5 cells). Media on the plated cells were aspirated every two days and replaced with fresh L-15 media.
Serum of four week-old congenitally infected duckling served as the source of virus used in these experiments. Treated and control DHBV spiked red cell samples were serially diluted 10-fold in L-15 medium and one-mL volumes were subsequently inoculated into PDH monolayers in quadruplicate. The infected cultures were incubated at 37° C.+20° C. with 5+1% C02 overnight for virus attachment and entry. The inoculum was then removed, cell monolayers washed once with complete L-15 medium to remove excess red blood cells, and then each well was overlaid with approximately 2-mL of fresh L-15 medium. Infected monolayers were incubated an additional 10-14 days at 37(+20° C. with 5+1% C02, with media changes every 2 days.
We detected the presence of DHB V-infected duck hepatocytes by an IFA. Briefly, the medium from the PDH monolayer was removed by aspiration, and the monolayers washed with agitation for 5-10 minutes with 1-2 mL of phosphate buffered saline (PBS). […]

Measured: FFFUD50/mL (log10)

paraformaldehyde
0 FFFUD50/mL (log10): [1]; 2.5% paraformaldehyde column 1 | [1]; 2.5% paraformaldehyde column 2 | [1]; 2.5% paraformaldehyde column 3 | [1]; 2.5% paraformaldehyde column 4 | [2]; paraformaldehyde column 1 | [2]; paraformaldehyde column 2 | [2]; paraformaldehyde column 3 | [2]; paraformaldehyde column 4
